{"source": "patent US9458161B1", "about": "“TSPO ligands for cancer imaging and treatment” (Vanderbilt University, priority 2011, dated 2016)", "key": {"colorectal cancer (CRC)": {"system": "colorectal cancer (CRC)", "assay": "In vivo combination of PBR06 with Cetuximab in WT and mutant KRAS CRC cohorts", "parameters": "species or system mice", "from_the_text": "This synergism is shown with both wild type (WT) and mutant KRAS colorectal cancer (CRC) cohorts (mice)."}, "[1]": {"system": "HCT116 p53−/− human CRC cells", "assay": "Immunoblotting of markers in HCT116 p53−/− cells (mutant KRAS) after 24 h drug exposure", "format": "cell-based", "method": "In these studies, HCT116 p53−/− human CRC cells were exposed to drug for 24 h, harvested, and the protein levels of various markers were assayed by immunoblotting."}, "LIM 2405 human CRC cells": {"system": "LIM 2405 human CRC cells", "assay": "Immunoblotting of markers in LIM 2405 cells (mutant B-RAF) after 24 h drug exposure", "format": "cell-based", "method": "In these studies, LIM 2405 human CRC cells were exposed to drug for 24 h, harvested, and the protein levels of various markers were assayed by immunoblotting."}, "TSPO [2]": {"target": "T1, TSPO (Rattus norvegicus, UniProt P16257)", "assay": "Compartmental binding assay in heavy and light fractions of C6 cell lysate", "parameters": "from tissue; host or cells: C6 glioma tumour and normal brain / other tissues of living rats", "from_the_text": "In order to fully characterize TSPO expression profile in the healthy tissues and C6 cells, this example includes subcellular studies. The present inventors separated two fractions of tissue and C6 cell lysates based on the density difference. […] Based on these two fractions, we performed western blot to determine TSPO expression profile in a variety of healthy tissues and C6 cell lysates. […] Thus, we evaluated the binding potential of VUIIS1008 in different fractions."}, "TSPO [3]": {"target": "T1, TSPO", "assay": "Radioligand displacement of [3H]PK 11195 in C6 glioma cell / tumor lysate", "format": "binding", "parameters": "from tissue; host or cells: C6 glioma tumour and normal brain / other tissues of living rats", "method": "Given our focus of targeting TSPO expressed in tumors, affinity assays will be conducted in whole and fractionated tumor lysate.\nIn this Example Glioma-bearing rats were imaged with [^18F]PBR06 in a microPET system. Dynamic acquisitions were acquired simultaneously upon injection of 70-100 MBq/0.2 mL [^18F]PBR06. Over the course of scanning, arterial blood was collected to derive the input function, with HPLC radiometabolite analysis performed on selected samples for arterial input function correction. Compartmental modeling of the PET data was performed using the corrected arterial input function. Specific tumor cell binding of PBR06 was evaluated by radioligand displacement of [^3H]PK 11195 with PBR06 in vitro and by displacement of [^18F]PBR06 with excess PBR06 in vivo. Immediately following imaging, tumor tissue and adjacent healthy brain were harvested for assay of TSPO protein levels by western blotting and immunohistochemistry.\nRadioligand displacement of the high-affinity isoquinoline carboxamide TSPO ligand [^3H]PK 11195 was used to evaluate the specific binding of the non-radioactive analogue PBR06 in C6 glioma cell line homogenates in vitro (FIG. 10). […]"}, "DiFi human CRC cells": {"system": "DiFi human CRC cells", "assay": "Immunoblotting of markers in DiFi cells (WT KRAS) after 24 hr drug exposure", "format": "cell-based", "method": "In these studies, cultured cells were exposed to drug for 24 hr, harvested, and the protein levels of various markers were assayed by immunoblotting."}, "TSPO [4]": {"target": "T1, TSPO", "assay": "Dynamic microPET of [18F]VUIIS-1008 in C6 glioma-bearing rats, with compartmental modeling and in vivo displacement", "parameters": "from tissue; host or cells: C6 glioma tumour and normal brain / other tissues of living rats", "settings": "3-tissue model, tumor; mean; listed as VUIIS1008", "method": "Dynamic microPET imaging can be performed as in tumor-bearing and non-tumor-bearing rats. […] […] For displacement studies, ‘cold’ analog (10 mg/kg) are injected via jugular catheter 30 min after radiotracer administration. Prior to PET scanning, tumors are localized in tumor-bearing rats using MRI, including T2-weighted and diffusion-weighted scans. For longitudinal studies, tumor volumes are measured using a three-dimensional, T2-weighted fast spin-echo sequence on a Varian 9.4 T horizontal bore imaging system.\nA 3-compartment, 4-rate constant kinetic model can be used to characterize [^18F]PBR06 pharmacokinetics. […] These rate constants can be used to calculate the total volume of distribution (VT) in tissues of interest. Modeling will be carried out for whole brain (excluding tumor) and tumor by fitting time-activity curves (TACs) of each region.\nBefore PET imaging with ^18F-VUIIS1008, brain tumors were localized with T2-weighted MRI. […] After the initial spike in radioactivity consistent with tracer injection, ^18F-VUIIS1008 rapidly cleared from the plasma. Imaging-matched brains were processed for staining and immunohistochemistry. Using standard hematoxylin and eosin staining to localize the tumor, the present inventors discovered that TSPO expression was significant higher in tumor than in the adjacent healthy brain.\nIn order to fully evaluate the novel performance of ^18F-VUIIS1008, we have also determined ^18F-VUIIS 1008 pharmacodynamics with arterial input function."}, "nuclear TSPO": {"system": "nuclear TSPO", "assay": "Fractional (nuclear) displacement assay against [3H]PK 11195", "settings": "fractional nuclear binding assay, displacement of [3H]PK 11195", "method": "The characterization strategy can begin with a high-throughput fractional displacement assay developed in our laboratory (FIG. 8). This assay capitalizes upon the fact that PK 11195 binds nuclear and mitochondrial TSPO. Fractionated tumor lysate material containing an equivalent distribution of nuclear and mitochondrial TSPO (32) is incubated with [^3H]PK 11195 and candidate ligands. After incubation, protein is collected by centrifugation and microspotted in triplicate into high-density arrays (˜1 uL). The resultant radioligand displacement of each assay is quantified using a high-resolution digital autoradiography imaging system (BiospaceLab)."}, "[5]": {"settings": "PBR06 single agent, increasing concentrations, 24 h"}, "[6]": {"settings": "C6 glioma cell lysate / tumor lysate, read-out: IC50, displacement of [3H]PK 11195"}}, "note": "“Also recorded” adds a separate entry of the source. Like-named read-outs stand apart in the source and are kept apart here."}
{"smiles": "COc1ccc(OC)c(CN(C(=O)CF)c2ccccc2Oc2ccccc2)c1", "note": "[PBR06]", "values": [{"measurement": "effect in combination with Cetuximab (in words)", "setting": "colorectal cancer (CRC); WT and mutant KRAS CRC cohorts (mice)", "result": "in vivo synergistic effect"}, {"measurement": "tolerability (in words)", "setting": "colorectal cancer (CRC); mice", "result": "well tolerated among the test subjects"}, {"measurement": "cleaved caspase 3 (apoptosis)", "setting": "[1]; C225 combined with all but the lowest concentration of PBR06", "result": "significant levels of cleaved caspase 3 were induced"}, {"measurement": "pERK levels", "setting": "[1]; PBR06 in combination with elevated concentrations of C225", "result": "pERK could be fully inhibited at elevated concentrations of C225 with PBR06"}, {"measurement": "pERK levels", "setting": "[1]; [5]", "result": "modestly elevated levels of pERK"}, {"measurement": "p27 levels (cell cycle arrest)", "setting": "[1]; lowest concentration of C225 combined with PBR06 at all concentrations", "result": "resulted in elevated p27"}, {"measurement": "p21 induction", "setting": "LIM 2405 human CRC cells; PBR06 in combination with C225, even the lowest dosages of C225", "result": "significant induction of p21"}, {"measurement": "pERK levels", "setting": "LIM 2405 human CRC cells; [5]", "result": "elevated levels of pERK"}, {"measurement": "binding affinity in heavy (nuclei) and light (mitochondria) fractions (in words)", "setting": "TSPO [2]", "result": "bind to the light fraction selectively with a high binding affinity"}, {"measurement": "IC50", "setting": "TSPO [3]", "result": "~12.6", "unit": "nM"}, {"measurement": "IC50", "setting": "TSPO [3]; [6]", "result": 12, "unit": "nM"}, {"measurement": "binding affinity", "setting": "TSPO [3]; whole tumor lysate", "result": "~12", "unit": "nM"}, {"measurement": "p27 levels (cell cycle arrest)", "setting": "DiFi human CRC cells; PBR06 single agent 10 nM, 24 hr", "result": "significantly elevated p27"}, {"measurement": "pERK levels", "setting": "DiFi human CRC cells; PBR06 single agent, increasing concentrations 10 nM-10 uM, 24 hr", "result": "modestly elevated levels of pERK"}, {"measurement": "enhancement in the efficacy of C225 by combination with TSPO ligand", "setting": "DiFi human CRC cells; WT KRAS CRC cell line", "result": "approximately 10 fold"}, {"measurement": "p27 levels (cell cycle arrest)", "setting": "DiFi human CRC cells; lowest dosage of C225 (+) combined with all dosages of PBR06", "result": "significantly elevated levels of p27 could be achieved"}]}
{"smiles": "CCc1cc(CC)n2nc(-c3ccc(OCCF)cc3)c(CC(=O)N(CC)CC)c2n1", "note": "[VUIIS-1008]", "values": [{"measurement": "k6", "setting": "TSPO [4]", "result": "near-zero K6 in the tumor"}, {"measurement": "binding affinity in heavy (nuclei) and light (mitochondria) fractions (in words)", "setting": "TSPO [2]", "result": "comparable high binding affinity of VUIIS1008 in both two fractions"}, {"measurement": "affinity for nuclear TSPO (in words)", "setting": "nuclear TSPO", "result": "nanomolar binding affinity; also recorded: targets nuclear TSPO"}, {"measurement": "fold higher binding affinity compared with DPA-714 and PBR06", "setting": "TSPO [3]; C6 cell lysate, against [3H]PK11195", "result": 30, "unit": "fold"}, {"measurement": "IC50", "setting": "TSPO [3]; [6]", "result": "~1", "unit": "nM"}, {"measurement": "IC50 fold lower than PBR06 or DPA-714", "setting": "TSPO [3]; against 3H-PK 11195 in tumor lysate", "result": "approximately 10 fold"}, {"measurement": "binding affinity (in words)", "setting": "TSPO [3]; tumor lysate / C6 cell lysate, listed as VUIIS1008", "result": "sub-nanomolar binding affinity"}]}
